In ChEMBL document CHEMBL1129529, “Synthesis and antiviral activity of pyranosylphosphonic acid nucleotide analogues” (J Med Chem, 1996):

Key:
NHDF [1] = assay: Cytotoxic activity against NHDF cell growth; format: functional; conditions: Homo sapiens
NHDF [2] = assay: Inhibitory activity against replication of HCMV in NHDF cells; format: functional, cell-based; conditions: Homo sapiens
[3] = Selectivity index is defined as ratio between IC50(NHDF) / IC50(HCMV); format: functional
MRC5 [4] = assay: Inhibitory activity against cytopathic effect of HSV-2(E 194) in MRC-5 cells; format: functional, cell-based; conditions: Homo sapiens
NHDF [5] = assay: Inhibitory activity against replication of HCMV in NHDF cells; Not active; format: functional, cell-based, Homo sapiens
MRC5 [6] = assay: Inhibitory activity against cytopathic effect of HSV-2(E 194) in MRC-5 cells; Not active; format: functional, cell-based, Homo sapiens
NHDF [7] = assay: Cytotoxic activity against NHDF cell growth; Not active; format: functional, cell-based, Homo sapiens

SMILES	CC50 (NHDF [1])	IC50 (NHDF [2])	Selectivity ratio [3]	IC50 (MRC5 [4])	IC50 (NHDF [5])	IC50 (MRC5 [6])	IC50 (NHDF [7])
Nc1ccn(C[C@@H](CO)OCP(=O)(O)O)c(=O)n1 [CIDOFOVIR]	200 µM	0.5 µM	400	10 µM	–	–	–
Nc1nc(O)c2ncn(C3C=CC(P(=O)(O)O)OC3CO)c2n1 (stereo not given)	–	–	–	–	Not Active	Not Active	Not Active
Nc1ncnc2c1ncn2C1CC=C(P(=O)(O)O)OC1CO (stereo not given)	> 1000 µM	90 µM	> 11	–	–	–	–
Nc1nc(O)c2ncn([C@@H]3C=C[C@H](P(=O)(O)O)O[C@@H]3CO)c2n1	> 1000 µM	> 300 µM	–	275 µM	–	–	–
Nc1ccn([C@@H]2CC=C(P(=O)(O)O)O[C@@H]2CO)c(=O)n1	> 1000 µM	40 µM	> 25	90 µM	–	–	–
Nc1nc(O)c2ncn([C@@H]3CC=C(P(=O)(O)O)O[C@@H]3CO)c2n1	–	–	–	–	Not Active	Not Active	Not Active
Nc1ccn([C@H]2CC=C(P(=O)(O)O)O[C@H]2CO)c(=O)n1	–	–	–	–	Not Active	Not Active	Not Active
CC1OC(P(=O)(O)O)=CCC1n1ccc(N)nc1=O (stereo not given)	> 1000 µM	300 µM	> 3.3	> 400 µM	–	–	–
Cc1cn(C2CC=C(P(=O)(O)O)OC2CO)c(=O)[nH]c1=O (stereo not given)	–	–	–	–	Not Active	Not Active	Not Active
CC1OC(P(=O)(O)O)C=CC1n1ccc(N)nc1=O (stereo not given)	> 1000 µM	200 µM	> 5	> 400 µM	–	–	–
Nc1ncnc2c1ncn2[C@@H]1C=C[C@@H](P(=O)(O)O)O[C@@H]1CO	> 1000 µM	> 300 µM	–	300 µM	–	–	–
Nc1ccn([C@@H]2C=C[C@H](P(=O)(O)O)O[C@@H]2CO)c(=O)n1	> 1000 µM	10 µM	> 100	85 µM	–	–	–
Cc1cn([C@@H]2C=C[C@@H](P(=O)(O)O)O[C@@H]2CO)c(=O)[nH]c1=O	–	–	–	–	Not Active	Not Active	Not Active
Cc1cn([C@@H]2C=C[C@H](P(=O)(O)O)O[C@@H]2CO)c(=O)[nH]c1=O	–	–	–	–	Not Active	Not Active	Not Active
Nc1ncnc2c1ncn2[C@@H]1C=C[C@H](P(=O)(O)O)O[C@@H]1CO	–	–	–	–	Not Active	Not Active	Not Active
Cc1cn(C2CC=C(P(=O)(O)O)OC2C)c(=O)[nH]c1=O (stereo not given)	–	–	–	–	Not Active	Not Active	Not Active
Nc1ccn([C@H]2C=C[C@@H](P(=O)(O)O)O[C@H]2CO)c(=O)n1	–	–	–	–	Not Active	Not Active	Not Active
Nc1ccn(C2CCC(P(=O)(O)O)OC2CO)c(=O)n1 (stereo not given)	> 1000 µM	80 µM	> 12	–	–	–	–
CC1OC(P(=O)(O)O)=CCC1n1cnc2c(N)ncnc21 (stereo not given)	–	–	–	–	Not Active	Not Active	Not Active
Cc1cn(C2C=CC(P(=O)(O)O)OC2C)c(=O)[nH]c1=O (stereo not given)	–	–	–	–	Not Active	Not Active	Not Active
